Test results published in patent US9284302B2, “Cyclobutyl benzimidazoles as PDE 10 inhibitors” (Merck Sharp & Dohme Corp., priority 2012, dated 2016).

Target: human PDE10A2 (Homo sapiens (Human), UniProt Q9Y233)
Experiment: PDE10 fluorescence polarization (IMAP FP) inhibition assay
Assay type: biochemical
Conditions: apparent inhibition constant; FAM-labeled cAMP substrate 50 nM, room temperature; read-out: PDE10a Ki
Procedure: The activity of the compounds in accordance with the present invention as PDE10 inhibitors may be readily determined without undue experimentation using a fluorescence polarization (FP) methodology that is well known in the art (Huang, W., et al., J. Biomol Screen, 2002, 7: 215).
In a typical experiment the PDE10 inhibitory activity of the compounds of the present invention was determined in accordance with the following experimental method. PDE10A2 was amplified from human fetal brain cDNA (Clontech, Mountain View, Calif.) using a forward primer corresponding to nucleotides 56-77 of human PDE10A2 (Accession No. AF127480, Genbank Identifier 4894716), containing a Kozak consensus sequence, and a reverse primer corresponding to nucleotides 2406-2413 of human PDE10A2 (Accession No. AF127480, Genbank Identifier 4894716). Amplification with Easy-A polymerase (Stratagene, La Jolla, Calif.) was 95° C. for 2 minutes followed by thirty three cycles of 95° C. for 40 seconds, 55° C. for 30 seconds, and 72° C. for 2 minutes 48 seconds. Final extension was 72° C. for 7 minutes. The PCR product was TA cloned into pcDNA3.2-TOPO (Invitrogen, Carlsbad, Calif.) according to standard protocol. AD293 cells with 70-80% confluency were transiently transfected with human PDE10A2/pcDNA3.2-TOPO using Lipofectamine 2000 according to manufacturer specifications (Invitrogen, Carlsbad, Calif.). Cells were harvested 48 hours post-transfection and lysed by sonication (setting 3, 10×5 sec pulses) in a buffer containing 20 mM HEPES, 1 mM EDTA and protease inhibitor cocktail (Roche). Lysate was collected by centrifugation at 75,000 xg for 20 minutes. Supernatant containing the cytoplasmic fraction was used for evaluation of PDE10A2 activity. The fluorescence polarization assay for cyclic nucleotide phosphodiesterases was performed using an IMAP® FP kit supplied by Molecular Devices, Sunnyvale, Calif. (product #R8139). IMAP® technology has been applied previously to phosphodiesterase assays (Huang, W., et al., J. Biomol Screen, 2002, 7: 215). Assays were performed at room temperature in 384-well microtiter plates with an incubation volume of 20.2 μL. Solutions of test compounds were prepared in DMSO and serially diluted with DMSO to yield 8 μL of each of 10 solutions differing by 3-fold in concentration, at 32 serial dilutions per plate. […] 0% of inhibition is determined by using DMSO (1% final concentrations). […]

Sequence of human PDE10A2 (Q9Y233 267-1055): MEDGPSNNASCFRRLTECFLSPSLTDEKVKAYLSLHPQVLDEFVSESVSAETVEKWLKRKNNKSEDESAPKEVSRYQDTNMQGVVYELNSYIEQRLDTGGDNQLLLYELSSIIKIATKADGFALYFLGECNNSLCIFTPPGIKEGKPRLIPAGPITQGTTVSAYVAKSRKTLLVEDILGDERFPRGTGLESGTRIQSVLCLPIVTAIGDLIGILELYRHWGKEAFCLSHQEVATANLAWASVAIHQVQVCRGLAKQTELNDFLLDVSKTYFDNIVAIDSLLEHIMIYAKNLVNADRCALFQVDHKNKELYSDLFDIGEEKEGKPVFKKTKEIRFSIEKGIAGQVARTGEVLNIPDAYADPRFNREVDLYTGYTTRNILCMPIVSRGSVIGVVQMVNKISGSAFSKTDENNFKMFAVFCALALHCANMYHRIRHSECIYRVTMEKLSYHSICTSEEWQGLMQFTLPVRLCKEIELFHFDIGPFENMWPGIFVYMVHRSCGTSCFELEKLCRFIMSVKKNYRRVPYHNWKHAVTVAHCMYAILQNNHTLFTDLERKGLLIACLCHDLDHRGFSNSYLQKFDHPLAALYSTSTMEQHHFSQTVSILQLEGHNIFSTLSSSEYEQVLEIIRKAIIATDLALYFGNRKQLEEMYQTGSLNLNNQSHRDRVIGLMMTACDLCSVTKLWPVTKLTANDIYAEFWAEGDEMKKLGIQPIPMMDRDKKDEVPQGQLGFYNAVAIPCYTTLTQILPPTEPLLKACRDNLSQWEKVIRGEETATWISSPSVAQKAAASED

Row | Structure (SMILES) | Ki [nM]
1 | Cc1nc(-n2nc(C)nc2C)cc(C2(O)CC(c3nc4ccccc4n3C)C2)n1 (stereo not shown) [Example 1, 1-(6-(3,5-dimethyl-1H-1,2,4-triazol-1-yl)-2-methylpyrimidin-4-yl)-3-(1-methyl-1H-benzo[d]imidazol-2-yl)cyclobutanol] | > 75
2 | Cc1nc(-n2nc(C)nc2C)cc(C2(F)CC(c3nc4ccccc4n3C)C2)n1 (stereo not shown) [Example 2, 2-(3-(6-(3,5-dimethyl-1H-1,2,4-triazol-1-yl)-2-methylpyrimidin-4-yl)-3-fluorocyclobutyl)-1-methyl-1H-benzo[d]imidazole] | 88
3 | Cc1nc(-n2nc(C)nc2C)cc([C@H]2C[C@@H](c3nc4ccccc4n3C)C2)n1 [Example 3, 2-((cis)-3-(6-(3,5-dimethyl-1H-1,2,4-triazol-1-yl)-2-methylpyrimidin-4-yl)cyclobutyl)-1-methyl-1H-benzo[d]imidazole] | 2.8
4 | Cc1nc(-n2nc(C)nc2C)cc([C@H]2C[C@H](c3nc4ccccc4n3C)C2)n1 [Example 4, 2-((trans)-3-(6-(3,5-dimethyl-1H-1,2,4-triazol-1-yl)-2-methylpyrimidin-4-yl)cyclobutyl)-1-methyl-1H-benzo[d]imidazole] | 4.7
